{"source": "the OligoGym collection", "note": "Oligonucleotides are written 5' to 3', each unit as a sugar letter and its base; * is a phosphorothioate linkage, no mark a phosphodiester; rarer units and linkages stand in square brackets, end groups in braces. Plain capitals give the bases only. d = 2'-deoxy (DNA); r = 2'-OH (RNA); further: test concentration or dose not given here", "data": [{"molecular_target": "MRFAP1", "assay": "reporter assay of Huesken 2005", "settings": "siRNA", "units": {"normalised inhibition (eCFP-eYFP dual reporter)": "%"}, "values": [{"substance": "sense rCrCrCrCrUrCrUrGrUrCrUrUrCrArCrUrCrUrGdTdT / antisense rCrArGrArGrUrGrArArGrArCrArGrArGrGrGrGdAdA", "normalised inhibition (eCFP-eYFP dual reporter)": 87.5}, {"substance": "sense rCrCrCrUrGrUrGrArCrArCrUrGrArGrArCrUrUdTdT / antisense rArArGrUrCrUrCrArGrUrGrUrCrArCrArGrGrGdAdC", "normalised inhibition (eCFP-eYFP dual reporter)": 65.9}, {"substance": "sense rCrCrGrArGrGrArGrGrUrGrGrArGrGrUrGrCrUdTdT / antisense rArGrCrArCrCrUrCrCrArCrCrUrCrCrUrCrGrGdGdC", "normalised inhibition (eCFP-eYFP dual reporter)": 58.9}, {"substance": "sense rCrCrGrGrGrGrCrArArGrCrUrGrUrGrGrGrArGdTdT / antisense rCrUrCrCrCrArCrArGrCrUrUrGrCrCrCrCrGrGdTdT", "normalised inhibition (eCFP-eYFP dual reporter)": 44.9}, {"substance": "sense rCrCrUrGrCrArArUrGrGrArCrCrCrArArArArCdTdT / antisense rGrUrUrUrUrGrGrGrUrCrCrArUrUrGrCrArGrGdTdT", "normalised inhibition (eCFP-eYFP dual reporter)": 86.2}, {"substance": "sense rCrCrUrGrCrArGrGrGrCrGrCrGrGrGrCrGrGrCdTdT / antisense rGrCrCrGrCrCrCrGrCrGrCrCrCrUrGrCrArGrGdTdG", "normalised inhibition (eCFP-eYFP dual reporter)": 60.9}, {"substance": "sense rCrGrGrArArCrCrCrGrGrUrArUrGrGrGrArGrAdTdT / antisense rUrCrUrCrCrCrArUrArCrCrGrGrGrUrUrCrCrGdTdT", "normalised inhibition (eCFP-eYFP dual reporter)": 49.8}, {"substance": "sense rCrGrGrArCrGrCrGrCrGrCrCrCrGrUrGrCrGrCdTdT / antisense rGrCrGrCrArCrGrGrGrCrGrCrGrCrGrUrCrCrGdCdG", "normalised inhibition (eCFP-eYFP dual reporter)": 19.7}, {"substance": "sense rCrGrGrCrGrGrArArGrUrUrUrUrGrArArGrArCdTdT / antisense rGrUrCrUrUrCrArArArArCrUrUrCrCrGrCrCrGdCdT", "normalised inhibition (eCFP-eYFP dual reporter)": 94.8}, {"substance": "sense rCrGrGrGrGrCrArArGrCrUrGrUrGrGrGrArGrAdTdT / antisense rUrCrUrCrCrCrArCrArGrCrUrUrGrCrCrCrCrGdGdT", "normalised inhibition (eCFP-eYFP dual reporter)": 69.6}, {"substance": "sense rCrGrGrUrArUrGrGrGrArGrArUrGrArGrGrUrCdTdT / antisense rGrArCrCrUrCrArUrCrUrCrCrCrArUrArCrCrGdGdG", "normalised inhibition (eCFP-eYFP dual reporter)": 84.8}, {"substance": "sense rCrUrArGrGrArCrUrGrArUrGrArCrCrUrGrGrGdTdT / antisense rCrCrCrArGrGrUrCrArUrCrArGrUrCrCrUrArGdCdC", "normalised inhibition (eCFP-eYFP dual reporter)": 63.1}, {"substance": "sense rCrUrArUrCrUrArUrUrArUrArArCrCrUrGrCrCdTdT / antisense rGrGrCrArGrGrUrUrArUrArArUrArGrArUrArGdTdG", "normalised inhibition (eCFP-eYFP dual reporter)": 90.4}, {"substance": "sense rCrUrArUrUrArUrArArCrCrUrGrCrCrUrGrArUdTdT / antisense rArUrCrArGrGrCrArGrGrUrUrArUrArArUrArGdAdT", "normalised inhibition (eCFP-eYFP dual reporter)": 88}, {"substance": "sense rCrUrCrArArCrCrArCrCrUrGrCrArGrGrGrCrGdTdT / antisense rCrGrCrCrCrUrGrCrArGrGrUrGrGrUrUrGrArGdAdG", "normalised inhibition (eCFP-eYFP dual reporter)": 43.2}, {"substance": "sense rCrUrCrUrGrArGrGrArGrArGrCrGrCrUrCrUrCdTdT / antisense rGrArGrArGrCrGrCrUrCrUrCrCrUrCrArGrArGdGdC", "normalised inhibition (eCFP-eYFP dual reporter)": 48.8}, {"substance": "sense rCrUrGrArCrArCrUrArCrGrUrUrUrCrUrGrCrUdTdT / antisense rArGrCrArGrArArArCrGrUrArGrUrGrUrCrArGdTdG", "normalised inhibition (eCFP-eYFP dual reporter)": 99.3}, {"substance": "sense rCrUrGrArGrArCrUrUrGrGrArGrUrUrGrGrArGdTdT / antisense rCrUrCrCrArArCrUrCrCrArArGrUrCrUrCrArGdTdG", "normalised inhibition (eCFP-eYFP dual reporter)": 81.5}, {"substance": "sense rCrUrGrCrCrCrGrUrCrArUrCrCrArCrGrArGrAdTdT / antisense rUrCrUrCrGrUrGrGrArUrGrArCrGrGrGrCrArGdCdA", "normalised inhibition (eCFP-eYFP dual reporter)": 70.8}, {"substance": "sense rCrUrGrCrUrGrCrCrCrGrUrCrArUrCrCrArCrGdTdT / antisense rCrGrUrGrGrArUrGrArCrGrGrGrCrArGrCrArGdAdA", "normalised inhibition (eCFP-eYFP dual reporter)": 39.5}, {"substance": "sense rCrUrGrUrGrGrGrArGrArUrGrGrArCrArArUrAdTdT / antisense rUrArUrUrGrUrCrCrArUrCrUrCrCrCrArCrArGdCdT", "normalised inhibition (eCFP-eYFP dual reporter)": 82.9}, {"substance": "sense rCrUrUrCrGrArGrCrArGrUrUrUrCrUrGrCrUrGdTdT / antisense rCrArGrCrArGrArArArCrUrGrCrUrCrGrArArGdTdC", "normalised inhibition (eCFP-eYFP dual reporter)": 59.9}, {"substance": "sense rCrUrUrGrCrArArUrArCrCrCrUrUrUrGrUrGrUdTdT / antisense rArCrArCrArArArGrGrGrUrArUrUrGrCrArArGdGdA", "normalised inhibition (eCFP-eYFP dual reporter)": 74.1}, {"substance": "sense rCrUrUrGrGrArGrUrUrGrGrArGrCrUrCrArCrCdTdT / antisense rGrGrUrGrArGrCrUrCrCrArArCrUrCrCrArArGdTdC", "normalised inhibition (eCFP-eYFP dual reporter)": 55.2}, {"substance": "sense rCrUrUrGrUrUrCrGrUrCrUrGrUrArCrArArGrUdTdT / antisense rArCrUrUrGrUrArCrArGrArCrGrArArCrArArGdAdC", "normalised inhibition (eCFP-eYFP dual reporter)": 54.3}, {"substance": "sense rGrArArArCrCrArGrArGrArGrCrCrUrUrUrGrUdTdT / antisense rArCrArArArGrGrCrUrCrUrCrUrGrGrUrUrUrCdAdG", "normalised inhibition (eCFP-eYFP dual reporter)": 86}, {"substance": "sense rGrArArArGrArUrCrCrUrUrGrCrArArUrArCrCdTdT / antisense rGrGrUrArUrUrGrCrArArGrGrArUrCrUrUrUrCdAdT", "normalised inhibition (eCFP-eYFP dual reporter)": 82.6}, {"substance": "sense rGrArArCrArGrCrGrGrCrGrGrArArGrUrUrUrUdTdT / antisense rArArArArCrUrUrCrCrGrCrCrGrCrUrGrUrUrCdCdA", "normalised inhibition (eCFP-eYFP dual reporter)": 84.3}, {"substance": "sense rGrArArUrArArCrGrUrUrCrArUrUrCrCrUrGrGdTdT / antisense rCrCrArGrGrArArUrGrArArCrGrUrUrArUrUrCdAdC", "normalised inhibition (eCFP-eYFP dual reporter)": 66.8}, {"substance": "sense rGrArCrGrCrArGrUrGrGrArGrCrUrGrGrCrGrGdTdT / antisense rCrCrGrCrCrArGrCrUrCrCrArCrUrGrCrGrUrCdCdA", "normalised inhibition (eCFP-eYFP dual reporter)": 65.5}, {"substance": "sense rGrArCrUrUrCrArUrCrUrGrGrGrArCrUrGrUrGdTdT / antisense rCrArCrArGrUrCrCrCrArGrArUrGrArArGrUrCdTdG", "normalised inhibition (eCFP-eYFP dual reporter)": 82.4}, {"substance": "sense rGrArGrArArGrGrArArArArCrCrUrGrCrArArUdTdT / antisense rArUrUrGrCrArGrGrUrUrUrUrCrCrUrUrCrUrCdAdG", "normalised inhibition (eCFP-eYFP dual reporter)": 79.1}, {"substance": "sense rGrArGrArGrCrCrUrUrUrGrUrUrUrUrCrCrUrUdTdT / antisense rArArGrGrArArArArCrArArArGrGrCrUrCrUrCdTdG", "normalised inhibition (eCFP-eYFP dual reporter)": 106}, {"substance": "sense rGrArGrArUrGrCrUrGrGrUrGrCrArGrCrUrCrGdTdT / antisense rCrGrArGrCrUrGrCrArCrCrArGrCrArUrCrUrCdGdG", "normalised inhibition (eCFP-eYFP dual reporter)": 32.2}, {"substance": "sense rGrArGrCrCrGrUrCrCrGrCrGrGrUrUrUrCrCrAdTdT / antisense rUrGrGrArArArCrCrGrCrGrGrArCrGrGrCrUrCdAdC", "normalised inhibition (eCFP-eYFP dual reporter)": 70.1}, {"substance": "sense rGrArGrGrArCrArUrCrGrCrGrUrCrGrCrUrGrAdTdT / antisense rUrCrArGrCrGrArCrGrCrGrArUrGrUrCrCrUrCdGdC", "normalised inhibition (eCFP-eYFP dual reporter)": 77.9}, {"substance": "sense rGrArGrGrArCrUrCrCrArUrGrCrArGrCrArArUdTdT / antisense rArUrUrGrCrUrGrCrArUrGrGrArGrUrCrCrUrCdTdT", "normalised inhibition (eCFP-eYFP dual reporter)": 44.8}]}]}
